From patent US20250032523A1, “ACTIVE HUMAN MILK OLIGOSACCHARIDE PREPARATION WITH ALLERGY-ALLEVIATING FUNCTION, AND USE THEREOF” (Zhejiang Gongshang University, priority 2023, published 2025)
“Also recorded” adds a separate entry of the source.

Columns and labels:
[1] = tested on: mouse bone marrow-derived DC line DC2.4; assay: Immune cell allergy model: RT-qPCR of allergy-associated genes in OVA-stimulated DC2.4 cells; assay type: cell-based; details: HMO preparation at final concentration 100 μg/mL, versus sensitization group
Protocol: (§1) In a fourth aspect, the present disclosure also provides a use of the active HMO preparation in construction of an immune cell allergy model, where the construction method of the immune cell allergy model includes the following steps: • (1) taking a cryopreserved mouse bone marrow-derived dendritic cell (DC) line DC2.4, and subjecting the cryopreserved mouse bone marrow-derived DC line DC2.4 to recovery, activation, and subculture in an incubator (37° C. and 5% CO2); • (2) sacrificing a Balb/c female mouse through cervical dislocation, collecting a spleen in a clean bench, subjecting the spleen to grinding, red blood cell lysis, washing, and re-suspension with a cell culture medium to obtain a mouse spleen single-cell suspension, and purifying T cells from the spleen single-cell suspension through magnetic bead separation; • (3) inoculating the cells in a 12-well cell culture plate, dividing the cells into a control group, a sensitization group, and an intervention group with 3 biological replicates for each group, and culturing the cells in an incubator (37° C. and 5% CO2); and • (4) extracting total RNA from cells, and detecting an RNA concentration with a nucleoprotein concentration meter for follow-up experiments; and reverse-transcribing the extracted RNA immediately into cDNA, conducting quantitative reverse transcription polymerase chain reaction (RT-qPCR), and with β-actin as an internal reference gene, calculating a relative expression level of a target gene by a 2^−ΔΔCt method.
(§2) In the present disclosure, an effect of the preparation is verified. When the immune cell allergy model is constructed, a sensitinogen used is ovalbumin (OVA), and relative expression levels of genes for a pro-inflammatory factor OX40L, an anti-inflammatory factor IL-10, a Th2-type cytokine IL-5, a Th1-type associated cytokine T-bet, a Th2-type cytokine IL-4, and a Th1-type associated cytokine IFN-γ are calculated.
(1) A cryopreserved mouse bone marrow-derived DC line DC2.4 was taken and subjected to recovery, activation, and subculture, and cells of generation 4 to 6 with a strong activity were selected for the experiment.
(3) The cells were divided into 4 groups with 3 replicates for each group, including a control group, a sensitization group, an HMO preparation intervention group 1 (Example 1), and an HMO preparation intervention group 2 (Example 2). In the HMO preparation intervention groups, an HMO preparation was added at a final concentration of 100 μg/mL to cells, and the cells were cultured in an incubator (37° C. and 5% CO2).
(§3) (4) Total RNA was extracted from cells and reverse-transcribed into cDNA, and an expression level of an allergy-associated gene in the cells was detected by RT-qPCR. […]

[2] = tested on: purified T cells from mouse spleen; assay: Immune cell allergy model: RT-qPCR of allergy-associated genes in OVA-stimulated purified T cells from mouse spleen; assay type: cell-based; details: HMO preparation at final concentration 100 μg/mL, versus sensitization group
Protocol: as §1, §2
(2) An SPF grade Balb/c female mouse was sacrificed through cervical dislocation and dissected under sterile conditions, a spleen tissue was collected and subjected to grinding, red blood cell lysis, washing, and re-suspension with an RPMI-1640 medium to prepare a mouse spleen single-cell suspension, and T cells in the mouse spleen were extracted through magnetic bead separation.
(3) The cells were divided into 4 groups with 3 replicates for each group, including a control group, a sensitization group, an HMO preparation intervention group 1 (Example 1), and an HMO preparation intervention group 2 (Example 2). […]
as §3

[3] = tested on: food allergy mice; assay: Food allergy mice (OVA sensitization), intragastric HMO preparation, RT-qPCR of spleen tissue; assay type: in vivo, mouse; details: OVA-sensitized mice, intragastric administration, versus sensitized mice
From the text: The anti-allergy active HMO preparations of LNFP-I and 2′-FL were intragastrically administered to food allergy mice to alleviate food allergy symptoms.
(1) Mice were intragastrically administered with OVA for sensitization, and then intervened with an HMO preparation intervention group 1 (Example 1) and an HMO preparation intervention group 2 (Example 2), respectively.
(2) The mice were sacrificed through cervical dislocation and dissected under sterile conditions, and spleen tissues were collected and stored in liquid nitrogen.
(3) Total RNA was extracted from each mouse spleen tissue and reverse-transcribed into cDNA, and an expression level of an allergy-associated gene was detected by RT-qPCR.
The anti-allergy active HMO preparations were intragastrically administered in a mass ratio of 1:3 to food allergy mice to alleviate food allergy symptoms.
(1) Mice were intragastrically administered with OVA for sensitization, and then intervened with the anti-allergy active HMO preparation prepared in Example 5 at a mass ratio of 1:3.

| Substance | expression level of the gene for anti-inflammatory factor IL-10 (relative mRNA, RT-qPCR) [1] | expression level of the gene for pro-inflammatory factor OX40L (relative mRNA, RT-qPCR) [1] | expression level of the gene for Th1-type associated cytokine T-bet (relative mRNA, RT-qPCR) [2] | expression level of the gene for Th2-type cytokine IL-5 (relative mRNA, RT-qPCR) [2] | expression level of the gene for Th1-type associated cytokine IFN-γ in spleen (relative mRNA, RT-qPCR) [3] | expression level of the gene for Th2-type cytokine IL-4 in spleen (relative mRNA, RT-qPCR) [3] |
| --- | --- | --- | --- | --- | --- | --- |
| 2′-fucosyllactose [intervention group 2] | significantly stimulate an expression level of a gene for IL-10 to further increase | can be reduced | significantly stimulate an expression level of the gene for T-bet to increase | decreases to some degree | greatly stimulate an expression level of the gene for IFN-γ to further increase | decrease significantly |
| lacto-N-fucopentaose I [intervention group 1] | significantly stimulate an expression level of a gene for IL-10 to further increase; also recorded: increases more than an expression level of the gene for IL-10 in the intervention group 2 | can be reduced | significantly stimulate an expression level of the gene for T-bet to increase; also recorded: increases more significantly than an expression level of the gene for T-bet in the intervention group 2 | decreases slightly | significantly stimulate an expression level of the gene for IFN-γ to further increase | does not change significantly |
